System: L1210
Test: Tumor cell selectivity determined as maximal percent increase in life span (ILSmax) at LD10 dosage level in L1210 cells
Format: functional, Mus musculus

Row | Structure (SMILES) | ILSmax [%]
1 | N=C(N)NCCS(=O)(=O)Nc1ccc(Nc2c3ccc(N)cc3nc3ccc(N)cc23)cc1 | 85
2 | NCCCCc1ccc(NC(=O)Nc2ccc(N=c3c4ccccc4[nH]c4ccccc34)cc2)cc1 | 170
3 | COc1ccc2nc3cc(N)ccc3c(Nc3ccc(NS(C)(=O)=O)cc3)c2c1 | 25
4 | Cc1cccc2c(Nc3ccc(NS(C)(=O)=O)cc3)c3ccc(N)cc3nc12 | 110
5 | CC(=O)Nc1ccc(S(=O)(=O)Nc2ccc(Nc3c4ccccc4nc4ccccc34)cc2)cc1 | 151
6 | NCCc1ccc(NC(=O)Nc2ccc(N=c3c4ccccc4[nH]c4ccccc34)cc2)cc1 | 170
7 | CS(=O)(=O)Nc1ccc(Nc2c3cc(N)ccc3nc3ccc(N)cc23)cc1 | 35
8 | Ic1ccccc1Nc1c2ccccc2nc2ccccc12 | 25
9 | CCCOc1cccc2c(Nc3ccc(NS(C)(=O)=O)cc3)c3ccccc3nc12 | 100
10 | CC(=O)Nc1ccc2c(Nc3ccc(NS(C)(=O)=O)cc3)c3cccc(C)c3nc2c1C | 60
11 | CCCCCCC(=O)N(c1ccc(Nc2c3ccccc3nc3cc(NC(C)=O)ccc23)cc1)S(C)(=O)=O | 100
12 | O=[N+]([O-])c1ccc(S(=O)(=O)Nc2ccc(Nc3c4ccccc4nc4cc([N+](=O)[O-])ccc34)cc2)cc1 | 200
13 | COc1cc(NS(C)(=O)=O)ccc1Nc1c2ccccc2nc2cc(C#N)ccc12 | 93
14 | O=C(O)CCCCCCCCCc1ccc(Nc2c3ccccc3nc3ccccc23)cc1 | 75
15 | O=C(O)CCCCc1ccc(NC(=O)Nc2ccc(N=c3c4ccccc4[nH]c4ccccc34)cc2)cc1 | 80
16 | N=C(N)NCCCCS(=O)(=O)Nc1ccc(Nc2c3ccccc3nc3ccccc23)cc1 | 25

Source: ChEMBL document CHEMBL1122107, “Structure-antitumor activity relationships of 9-anilinoacridines using pattern recognition” (1982)
